{
  "source": "paper PMC10254045",
  "about": "“Elaboration of the Effective Multi-Target Therapeutic Platform for the Treatment of Alzheimer’s Disease Based on Novel Monoterpene-Derived Hydroxamic Acids” (International Journal of Molecular Sciences, 2023)",
  "key": {"[1]": {"biological_target": "T1, β-amyloid peptide 1-42 (Aβ1-42) (Homo sapiens, UniProt P05067)", "T1 construct": "the pathological form of β-amyloid peptide 1-42 (Sigma Aldrich); purchased Sigma Aldrich", "T1 sequence (P05067 672-713 limits assumed)": "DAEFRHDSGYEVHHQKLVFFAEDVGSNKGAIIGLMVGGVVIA", "test": "Thioflavin T fluorescent analysis of Aβ1-42 aggregation", "assay_type": "biochemical", "settings": "48 h, compounds 100 µM, Thioflavin T 10 µM, 48 h registration; read-out: prevention of the aggregation of Aβ1-42", "source_text": "The aggregation process of β-amyloid peptide 1-42 (Aβ1-42), caused by hydrophobic interactions of peptide monomers and, as a consequence, the formation of the most toxic polymorphic structure-oligomeric fragments of Aβ, was detected using the fluorescent dye Thioflavin T (Figure 4a). This method is the most widely used for selective staining and the identification of amyloid aggregates, which is confirmed by a large number of works. Fluorescence analysis using Thioflavin T made it possible to monitor the aggregation process of the pathological form of β-amyloid peptide 1-42 (Sigma Aldrich, St. Louis, MI, USA). The experimental protocol was carried out similarly to that described in [58] with some modifications. The registration of changes in the fluorescence of thioflavin T (10 µM, Sigma Aldrich, St. Louis, MI, USA) was performed on a multifunctional tablet analyzer Cytation™3 (BioTek Instruments, Inc., Winooski, VT, USA) at λex = 450 nm, λem = 480 nm. The fluorescence intensity of the solution without Aβ1-42 was subtracted from the fluorescence values of solutions containing protein, due to the need to subtract the background fluorescence."}, "HDAC6": {"biological_target": "T2, HDAC6 (Homo sapiens, UniProt Q9UBN7)", "T2 construct": "purchased Enzo Life Sciences", "T2 sequence (Q9UBN7 1-1215)": "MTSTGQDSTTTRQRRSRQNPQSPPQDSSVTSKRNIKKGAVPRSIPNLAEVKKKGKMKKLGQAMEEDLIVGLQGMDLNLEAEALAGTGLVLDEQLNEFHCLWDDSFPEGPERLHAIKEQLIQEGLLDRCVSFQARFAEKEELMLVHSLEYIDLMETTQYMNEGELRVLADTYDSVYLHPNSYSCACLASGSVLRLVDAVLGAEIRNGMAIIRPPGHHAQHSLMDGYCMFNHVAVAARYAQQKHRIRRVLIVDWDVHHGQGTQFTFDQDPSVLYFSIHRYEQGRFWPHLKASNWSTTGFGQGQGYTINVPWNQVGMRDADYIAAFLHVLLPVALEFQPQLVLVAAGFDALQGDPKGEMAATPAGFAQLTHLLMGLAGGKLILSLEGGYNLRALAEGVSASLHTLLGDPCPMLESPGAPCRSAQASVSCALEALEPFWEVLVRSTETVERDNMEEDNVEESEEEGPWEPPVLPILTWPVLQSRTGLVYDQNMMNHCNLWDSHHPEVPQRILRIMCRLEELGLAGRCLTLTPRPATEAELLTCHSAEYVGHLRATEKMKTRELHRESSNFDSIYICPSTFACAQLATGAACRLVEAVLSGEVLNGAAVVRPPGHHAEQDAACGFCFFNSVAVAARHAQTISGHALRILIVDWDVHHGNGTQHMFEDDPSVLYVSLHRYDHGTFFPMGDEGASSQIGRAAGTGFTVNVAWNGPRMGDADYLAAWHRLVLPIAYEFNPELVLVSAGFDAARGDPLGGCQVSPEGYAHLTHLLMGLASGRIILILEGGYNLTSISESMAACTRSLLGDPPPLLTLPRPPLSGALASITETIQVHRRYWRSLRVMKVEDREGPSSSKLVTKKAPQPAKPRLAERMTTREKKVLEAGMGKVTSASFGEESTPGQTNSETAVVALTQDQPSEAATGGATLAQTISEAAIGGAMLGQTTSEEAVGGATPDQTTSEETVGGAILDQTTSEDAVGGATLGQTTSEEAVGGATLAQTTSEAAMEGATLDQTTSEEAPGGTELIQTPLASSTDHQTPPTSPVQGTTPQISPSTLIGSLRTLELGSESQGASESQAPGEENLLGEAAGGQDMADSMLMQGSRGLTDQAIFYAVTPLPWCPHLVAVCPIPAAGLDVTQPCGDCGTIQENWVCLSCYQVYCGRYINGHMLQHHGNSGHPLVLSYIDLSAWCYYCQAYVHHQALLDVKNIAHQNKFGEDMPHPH", "test": "Fluorimetric measurement of HDAC6 activity (FLUOR DE LYS kit)", "assay_type": "biochemical", "settings": "Table 1; read-out: HDAC6-Inhibitory Effect, IC50"}, "[2]": {"tested_on": "5xFAD transgenic mice brain mitochondria", "test": "Mitochondrial oxygen consumption rate of brain p2 fraction (Seahorse)", "assay_type": "in vivo", "settings": "p2 fraction of 5xFAD mice treated for three weeks, vs 5xFAD", "source_text": "As part of the in vivo testing of the biological activity of the leader compound, a transgenic mouse model with Alzheimer’s disease 5xFAD at the age of 13 months was used. This line expresses two human genes: APP (amyloid peptide precursor protein gene) with three types of mutations (Swedish (K670N, M671L), Florida (I716V) and London (V717I)), as well as the presenilin 1 gene with mutations (M146L and L286V) characteristic of this disease. Clinically healthy wildtype single-litter mice C57Bl6/j (n = 8) were used as a control group. Transgenic 5xFAD mice were randomly divided into two groups: (1) animals receiving intraperitoneal injections of hydroxamic acid 35a at a dose of 15 mg/kg (10% DMSO + NaCl) for three weeks—the 5xFAD + 35a group (n = 8) and (2) mice receiving an equivalent volume of solvent—the group 5xFAD (n = 8). […]\nThe analysis of the work of the complexes of the electron transport chain of mitochondria was carried out on the mitochondrial p2 fraction obtained from brain samples of animals of experimental groups. Mitochondrial respiration was determined by the rate of oxygen consumption by organelles using the Seahorse XFe96 cell metabolism analyzer (Seahorse Bioscience, North Billerica, MA, USA), in full compliance with the protocol described in [169]."}},
  "data": [
    {"smiles": "C=C(C)[C@@H]1CC=C(CNC(=O)/C=C/c2ccc(C(=O)NO)cc2)CC1", "note": "[Compound 35a, (S,E)-N-hydroxy-4-(3-oxo-3-(((4-(prop-1-en-2-yl)cyclohex-1-en-1-yl)methyl)amino)prop-1-en-1-yl)benzamide]", "values": [
      {"measurement": "inhibition at 100 µM", "setting": "[1]", "value": 73.9, "unit": "%"},
      {"measurement": "IC50", "setting": "HDAC6", "value": "3.85 ± 0.24", "unit": "µM"},
      {"measurement": "activity of complex IV (oxygen consumption rate), increase", "setting": "[2]; p < 0.0001", "value": 177.57, "unit": "%"},
      {"measurement": "activity of complex II (oxygen consumption rate), increase", "setting": "[2]; p = 0.0025", "value": 57.30, "unit": "%"}
    ]}
  ]
}
